The record followed here is US20100197789A1, “ANTI-OBESITY AGENT AND USE THEREOF” (National University Corporation Nagoya University, priority 2006, published 2010).

Common to all, as to assay type: in vivo, mouse
For test [1], the system named is DIO mice. Nature of the test: Food intake amount and body weight, 5 week-continuous oral administration, diet-induced obese (DIO) mice. The settings on record: (±)-baclofen 5 mg/kg/day, SKF97541 0.3 mg/kg/day, 3-APPA 5 mg/kg/day. The method, then: (§1) 5 week-old male C57BL/6N mice (body weight 17 to 20 g, CLEA Japan, Inc.) were purchased and individually fed in tip cages. To the mice, normal pellet diet (CE-2) was administered under free water intake and free food intake. A body weight and a food intake amount over 24 hours were measured every day from the start of feeding. On day 3 after the start of feeding, blood was taken from an orbit after 6 hour-fasting and a blood glucose level and a blood insulin concentration were measured. The mice were divided into a control group and a baclofen treated group (10 mice per each group) so that a body weight, a 24 hour-food intake amount, a blood glucose level, and a blood insulin concentration were equal, and diet induced-obesity (DIO) was started to be induced by administration of high fat diet (High Fat Diet 32, energy fat ratio 60%, CLEA Japan, Inc.) (DIO mice). At the same time as the start of administering the high fat diet, (±)-baclofen was dissolved in drinking water and 5 week-continuous oral administration was started in a dosage of 5 mg per 1 kg of a body weight in 1 day (5 mg/kg/day). A food intake amount and a body weight were measured over time during the 5 week-administration period. (±)-baclofen (5 mg/kg/day) was orally administered also to C57BL/6N mice (lean mice) that are non-obese mice to which normal diet was administered in the same manner as described above, and a food intake amount and a body weight were measured over time.
(§2) 5 week-old male C57BL/6N mice (body weight 17 to 20 g, CLEA Japan, Inc.) were purchased and individually fed in tip cages. Normal pellet diet (CE-2) was administered to the mice under free water intake and free food intake. A body weight and a food intake amount over 24 hours were measured every day from the start of feeding. On day 3 after the start of feeding, blood was taken from an orbit after 6 hour-fasting and a blood glucose level and a blood insulin concentration were measured. The mice were divided into a control group, an SKF97541 treated group and a 3-APPA treated group (10 mice per each group) so that a body weight, a 24 hour-food intake amount, a blood glucose level, and a blood insulin concentration were equal, and diet induced-obesity (DIO) was started to be induced by administration of high fat diet (High Fat Diet 32, energy fat ratio 60%, CLEA Japan, Inc.) (DIO mice). At the same time as the start of administering the high fat diet, SKF97541 (0.3 mg/kg/day) or 3-APPA (5 mg/kg/day) was dissolved in drinking water and 5 week-continuous oral administration was started. A food intake amount and a body weight were measured over time during the 5 week-administration period. SKF97541 (0.3 mg/kg/day) or 3-APPA (5 mg/kg/day) was orally administered also to C57BL/6N mice (lean mice) to which normal diet was administered in the same manner as described above, and a food intake amount and a body weight were measured over time.

For test [2], the system named is POMC mRNA. Nature of the test: In situ hybridization, POMC mRNA in hypothalamic arcuate nucleus, db/db mice. Particulars: after 5 weeks, 1.1 and 2.7 mg/dl in drinking water, NIH image quantitation. The method, then:
5 week-old male C57BL/KsJ-db/db mice (db/db mice: body weight 19 to 25 g, Japan SLC, Inc.) were purchased and individually fed in tip cages. For the db/db mice, normal pellet diet (CE-2) was administered under free water intake and free food intake. A body weight and a food intake amount over 24 hours were measured every day from the start of feeding. On day 3 after the start of feeding, blood was taken from an orbit after 6 hour-fasting and a blood glucose level and a blood insulin concentration were measured. The db/db mice were divided into three groups (10 mice per each group) so that a body weight, a 24 hour-food intake amount, a blood glucose level, and a blood insulin concentration were equal, and defined to be a control group, a low concentration baclofen treated group, and a high concentration baclofen treated group. […] A food intake amount and a body weight were measured over time during the period of 5 week-administration of (±)-baclofen, blood was taken after the end of the 5-week administration, and the db/db mice were sacrificed by cervical luxation. […] The epididymal white adipose tissues and subcutaneous white adipose tissues were measured in weights, and then fixed in 4% formaldehyde and preserved at 4° C. […]

Test [3] has as its system NPY mRNA. Nature of the test: In situ hybridization, NPY mRNA in hypothalamic arcuate nucleus, DIO mice. Particulars: (±)-baclofen oral 5 weeks. How it is done: A hypothalamic section with a thickness of 12 μm was prepared from the brain preserved at −80° C. by using a cryostat and stuck to a MAS coat slide and then in situ hybridization was performed. For a label of NPY mRNA and POMC mRNA probes, ^35S was used. The hypothalamic section was pretreated by using triethanolamine, ethanol and the like, and then 12 hour-hybridization was performed at 55° C. After the hybridization, the hypothalamic section was treated by washing with SSC, RNase, etc. After development to a film, the mRNA expression strength was assayed by using the NIH image.
(±)-baclofen was orally administered to DIO mice for 5 weeks according to the above method, and then the DIO mice were sacrificed. A brain was surgically removed, and changes in expression amounts of NPY mRNA and POMC mRNA in the hypothalamic arcuate nucleus were examined by using an in situ hybridization method.

The test system of test [4] is db/db mice. Nature of the test: Blood glucose level, HbA1c and plasma hormone concentrations after 5-week administration, db/db mice. Particulars: 1.1 and 2.7 mg/dl in drinking water. The method, then:
5 week-old male C57BL/KsJ-db/db mice (db/db mice: body weight 19 to 25 g, Japan SLC, Inc.) were purchased and individually fed in tip cages. For the db/db mice, normal pellet diet (CE-2) was administered under free water intake and free food intake. A body weight and a food intake amount over 24 hours were measured every day from the start of feeding. On day 3 after the start of feeding, blood was taken from an orbit after 6 hour-fasting and a blood glucose level and a blood insulin concentration were measured. The db/db mice were divided into three groups (10 mice per each group) so that a body weight, a 24 hour-food intake amount, a blood glucose level, and a blood insulin concentration were equal, and defined to be a control group, a low concentration baclofen treated group, and a high concentration baclofen treated group. After division into the groups, from day 5 after the start of feeding, (±)-baclofen was dissolved in drinking water and 5 week-continuous oral administration to the baclofen treated groups was started. (±)-baclofen was dissolved in drinking water at a concentration of 1.1 mg/dl in the low concentration treated group and at a concentration of 2.7 mg/dl in the high concentration treated group. A food intake amount and a body weight were measured over time during the period of 5 week-administration of (±)-baclofen, blood was taken after the end of the 5-week administration, and the db/db mice were sacrificed by cervical luxation. Brains, epididymal white adipose tissues, subcutaneous white adipose tissues and brown adipose tissues were surgically removed. The brains and brown adipose tissues were frozen in dry ice and liquid nitrogen immediately after the removal and then preserved at −80° C. The epididymal white adipose tissues and subcutaneous white adipose tissues were measured in weights, and then fixed in 4% formaldehyde and preserved at 4° C.
The blood glucose level was measured by a glucose analyzer Antisense (HORIBA, Ltd.) promptly after taking blood from an orbit. HbA1c was measured by a glycohemoglobin analyzer HLC-723 GHbV (manufactured by TOSOH Corporation) after preserving blood at −80° C.
After taking blood from an orbit by using a hematocrit tube coated with heparin, blood was centrifuged at 3500 rpm at 4° C. for 15 minutes, and plasma was preserved at −80° C. The plasma concentrations of insulin, leptin and adiponectin were measured by the ELISA method (levis insulin kit (mouse): Shibayagi Co., Ltd., Morinaga Leptin assay kit: Morinaga Institute of Biological Science, Inc., Mouse/rat adiponectin ELISA kit: OTSUKA Pharmaceutical Co., Ltd.).

For test [5], the system named is lean mice. Nature of the test: Food intake amount and body weight, 5 week-continuous oral administration, non-obese lean mice. The settings on record: lean mice (normal diet); oral 5 weeks; (±)-baclofen 5 mg/kg/day, SKF97541 0.3 mg/kg/day, 3-APPA 5 mg/kg/day. The method, then:
as §1, §2

Where [6] appears, read: DIO mice (high fat diet), oral in drinking water 5 weeks.
Setting [7] is: DIO mice, continued until 5 weeks.

For the molecule `NCC(CC(=O)O)c1ccc(Cl)cc1` (racemic) [(±)-baclofen, (RS)-4-amino-3-(4-chlorophenyl)butanoic acid], in test [1] (setting [6]), the body weight increase result was “significantly suppressed” and the food intake amount result is on record as “significantly suppressed”. Also, in test [1] (setting [7]), the “time after start of administration from which body weight increase suppression was significant” value is 1 week and the “time after start of administration from which food intake suppression was significant” value was 1 week. For the same molecule, the “expression of POMC mRNA in the hypothalamic arcuate nucleus” value in test [2] is reported as “significantly enhanced”. For the same molecule, in test [3], the “expression of NPY mRNA in the hypothalamic arcuate nucleus” value is recorded as “significantly suppressed”. Further, in test [4] (after 5 week-administration), the blood adiponectin concentration result is “Significant increases”, the blood leptin concentration entry is reported as “Significant increases” and the “fasting blood insulin level” value is given as “No change”. Also, in test [4] (after administration for 5 weeks), the HbA1c value result is “Significant decreases”. For the same molecule, the “fasting blood glucose level” value in test [4] (fasting for 6 hours, after 5 week-administration) is given as “significant suppression”. In test [5], the body weight result was “did not give significant effects” and the food intake amount result is “did not give significant effects”.
